Data as given in patent US10226509B2, “Lymphangiogenesis inhibitors for cancer and for graft survival” (TUFTS UNIVERSITY, priority 2014, dated 2019).
“Also recorded” adds a separate entry of the source.

Key:
[1] = test system: VEGF-A-induced LEC sprouting; assay: LEC sprouting assay: VEGF-A-induced sprouting; format: cell-based, human; settings: VEGF-A 50 ng/ml; 10 μg/ml
Description: LEC spheroids were generated by seeding primary LECs at passage 4 or 5 in each well of 384-well hanging-drop plates (3D Biomatrix) in complete EGM-2 MV medium containing 0.25% methyl cellulose according to the manufacturer's instructions (750 cells/well). After 18 hours, LEC spheroids were collected, resuspended in serum-free EBM-2 basal medium, and mixed with collagen solution (PureCol collagen, Advanced BioMatrix, 2.2 mg/ml in M199 medium, pH adjusted to 7.4 with NaHCO3 and NaOH). Aliquots of the LEC spheroid/collagen mixture (250 μl/well of 48-well plate) were incubated in the presence or absence of various test agents for 24 hr. […] Fluorescent images were acquired using the EVOS FL cell imaging system, pixels were inverted for better visualization and cumulative length of each sprout was calculated. Results were expressed as fold change compared to corresponding controls. […]
In addition, investigations were performed to determine whether VEGF-A/VEGFR-2 pathway, which also promotes lymphangiogenesis, is involved in Gal-8-mediated lymphangiogenesis. LEC spheroids were stimulated with Gal-8 (0.75 μM) in the presence or absence of VEGFR-3-Fc, VEGFR-2-Fc (10 μg/ml), Avastin (bevacizumab) (10 μg/ml) or control IgG (10 μg/ml) for 24 hours and then accumulated sprout lengths were quantified. […]

[2] = test system: Gal-8-induced LEC sprouting; assay: LEC sprouting assay: Gal-8-induced sprouting with inhibitors or knockdown; format: cell-based, human; settings: Gal-8 0.75 μM, 24 h; TDG 20 mM; LY294002 20 μM; U0126 20 μM; PD0325901 1 μM; Avastin 10 μg/ml; Obtustatin 4 μM; antibodies 20 μg/ml; siRNA-transfected LECs
Description: LEC spheroids were generated by seeding primary LECs at passage 4 or 5 in each well of 384-well hanging-drop plates (3D Biomatrix) in complete EGM-2 MV medium containing 0.25% methyl cellulose according to the manufacturer's instructions (750 cells/well). After 18 hours, LEC spheroids were collected, resuspended in serum-free EBM-2 basal medium, and mixed with collagen solution (PureCol collagen, Advanced BioMatrix, 2.2 mg/ml in M199 medium, pH adjusted to 7.4 with NaHCO3 and NaOH). Aliquots of the LEC spheroid/collagen mixture (250 μl/well of 48-well plate) were incubated in the presence or absence of various test agents for 24 hr. At the end of the incubation period, spheroids were stained with Calcein AM (Invitrogen, 1 μg/mL, 37° C., and 30 min). Fluorescent images were acquired using the EVOS FL cell imaging system, pixels were inverted for better visualization and cumulative length of each sprout was calculated. Results were expressed as fold change compared to corresponding controls. […] Test agents used included thiodigalactoside (10 to 50 mM, Carbosynth), 3′-sialyl lactose (2 to 10 mM, Carbosynth), 6′-sialyl lactose (2 to 10 mM, Carbosynth), LY294002 (20 μM, Abeam), U0126 (20 μM, Abeam), PD0325901 (1 μM, Selleckchem), human VEGFR-3-Fc chimera (10 μg/ml, R&D), human VEGFR-2-Fc chimera (10 μg/ml, R&D), Avastin (10 μg/ml, bevacizumab, Genentech/Roche), human control IgG (10 μg/ml, Southern Biotech), anti-human podoplanin functional grade antibody (10 μg/ml, eBioscience), and rat IgG2a κ isotype control functional grade antibody (10 μg/ml, eBioscience).
To determine the role of these pathways on Gal-8-induced lymphangiogenesis, LEC spheroids were stimulated with Gal-8 (0.75 μM) in the presence or absence of PI3K inhibitor (LY294002, 20 μM) and two different MEK inhibitors (U0126, 20 μM; PD0325901, 1 μM). After overnight treatment with Gal-8, accumulated sprout lengths were quantified.

mouse corneas [3] = assay: Mouse model of suture-induced inflammatory corneal lymphangiogenesis; format: in vivo; settings: subconjunctival injections days 0, 2, 4, 6; TDG 200 mM; Gal-8N 15 μg; Prox1-EGFP mice
Excerpt: The mouse model of suture-induced lymphangiogenesis was used as described in Cho, Y. K., et al. 2012. Invest Ophthalmol Vis Sci 53:685-692 and Cursiefen, C., et al. 2004. Invest Ophthalmol Vis Sci 45:1117-1124. Two 11-0 sutures were placed intrastromally about 2 mm from the limbus at the 12 and 6 o'clock positions in the Prox1-EGFP reporter mice. After surgery, a veterinary ophthalmic ointment was applied to prevent infection. Sutures were left in place for 7 days. To assess the effect of galectin inhibitors on suture-induced lymphangiogenesis, 10 μL of vehicle (PBS), TDG (200 mM in PBS), or Gal-8N (15 μg in PBS) were subconjunctivally injected on post-surgery days 0, 2, 4 and 6 using a 32 gauge needle with a 10 μL syringe (Hamilton). On day 7 post-surgery, mouse corneas were harvested and processed for staining with anti-LYVE-1 as described in examples herein. The areas of lymphatic vessels covering the whole corneas were calculated.
There is much interest in finding ways to inhibit prolymphangiogenic factors as means of suppressing cancer metastasis, transplant rejection and chronic inflammation. To determine whether galectins can be targeted to control lymphangiogenesis, a well-established in vivo model of lymphangiogenesis was used. […] At the end of the treatment period, lymphatic vessel areas were quantified.

[4] = test system: VEGF-C-induced LEC sprouting; assay: LEC sprouting assay: VEGF-C-induced sprouting; format: cell-based, human
Description: LEC spheroids were generated by seeding primary LECs at passage 4 or 5 in each well of 384-well hanging-drop plates (3D Biomatrix) in complete EGM-2 MV medium containing 0.25% methyl cellulose according to the manufacturer's instructions (750 cells/well). After 18 hours, LEC spheroids were collected, resuspended in serum-free EBM-2 basal medium, and mixed with collagen solution (PureCol collagen, Advanced BioMatrix, 2.2 mg/ml in M199 medium, pH adjusted to 7.4 with NaHCO3 and NaOH). Aliquots of the LEC spheroid/collagen mixture (250 μl/well of 48-well plate) were incubated in the presence or absence of various test agents for 24 hr. At the end of the incubation period, spheroids were stained with Calcein AM (Invitrogen, 1 μg/mL, 37° C., and 30 min). Fluorescent images were acquired using the EVOS FL cell imaging system, pixels were inverted for better visualization and cumulative length of each sprout was calculated. Results were expressed as fold change compared to corresponding controls. It was observed that sprout lengths vary from passages to passages. Test agents used included thiodigalactoside (10 to 50 mM, Carbosynth), 3′-sialyl lactose (2 to 10 mM, Carbosynth), 6′-sialyl lactose (2 to 10 mM, Carbosynth), LY294002 (20 μM, Abeam), U0126 (20 μM, Abeam), PD0325901 (1 μM, Selleckchem), human VEGFR-3-Fc chimera (10 μg/ml, R&D), human VEGFR-2-Fc chimera (10 μg/ml, R&D), Avastin (10 μg/ml, bevacizumab, Genentech/Roche), human control IgG (10 μg/ml, Southern Biotech), anti-human podoplanin functional grade antibody (10 μg/ml, eBioscience), and rat IgG2a κ isotype control functional grade antibody (10 μg/ml, eBioscience).
In this assay, the LEC spheroids were treated with VEGF-C (50 ng/ml) in the presence or absence of 0.75 μM of Gal-8 for 24 hours, and then accumulated sprout lengths were quantified. […] Synergistic effect of Gal-8 on VEGF-C-induced LEC sprouting was dose-dependent. […] At concentrations >0.5 μM Gal-8, there was no further increase in the degree of VEGF-C-induced lymphangiogenesis (FIG. 4C).
To further characterize the role of carbohydrate-mediated recognition in VEGF-C-induced lymphangiogenesis, LEC spheroids were stimulated with VEGF-C (50 ng/ml) in the presence or absence of three different galectin inhibitors. […] Therefore, the data establishes the critical role of Gal-8-mediated carbohydrate-mediated recognition in VEGF-C-induced lymphangiogenesis.

mouse corneas [5] = assay: Corneal mouse micropocket lymphangiogenesis assay; format: in vivo; settings: for mean lymphatic vessel areas: seven days
Description: The corneal micropocket lymphangiogenesis assay was performed using implants containing a test agent, hydron (polyhydroxylmethylmethacrylate), and sucralfate (Cao, R., et al. 2011. Nat Protoc 6:817-826; Rogers, M. S., et al. 2007. Nat Protoc 2:2545-2550). Test agents included full-length Gal-8 (40-320 ng/pellet) and VEGF-C (160 ng/pellet). Implants containing hydron and sucralfate alone served as negative controls. The mice were anesthetized by intraperitoneal injection of a mixture of ketamine (90-120 mg/kg) and xylazine (10 mg/kg). The eyes were topically anesthetized with proparacaine and were gently proptosed (forwardly displaced) with forceps. Using a corneal blade and a stereoscope, intrastromal linear keratotomy was performed about 2 mm from the limbus. Using a von Graefe knife (Miltex), a pocket was extended towards the limbus, and the pellet was maneuvered into the pocket. The wound was coated with a veterinary ophthalmic ointment (Akorn) to prevent infection. Mouse corneas were harvested 7 days after pellet implantation, fixed in 4% paraformaldehyde/PBS (1 hour at 4° C.), washed with PBS, and fixed again in iced acetone (15 min at −20° C.). To quantitate the extent of lymphangiogenesis in Prox-1-EGFP reporter mice, flat mounts of the dissected corneas were evaluated by fluorescence microscopy. Fluorescent images were acquired by EVOS FL cell imaging system (Invitrogen), and vessel areas were calculated using the formula (Rogers, M. S., et al. 2007. Nat Protoc 2:2545-2550): vessel area=pellet distance×vessel length×clock hours×[…]. To quantitate the extent of lymphangiogenesis in WT and PDPN-deficient mice, corneas were stained with eFluor 570-anti-mouse LYVE-1 (clone ALY7, eBioScience, and 1:75) in 10% goat serum/0.2% Triton X-100/PBS overnight, 4° C. After several washes with 0.2% Triton X-100/PBS, the corneas were flattened and mounted with VECTASHIELD mounting medium (Vector Laboratories) and evaluated by fluorescence microscopy. In some examples, for comparisons, corneas were stained with Alexa Fluor® 488-anti-mouse CD31 (clone MEC13.3, 1:100, BioLegend) to visualize blood vessels.

VEGFR-3 = assay: Cell surface expression of VEGFR-3 by flow cytometry; format: cell-based, human; settings: Gal-8 0.2 μM or VEGF-C 50 ng/ml
Description: (§1) Primary LECs were serum-starved overnight in basal EBM-2 medium. The cells were incubated with or without VEGF-C (50 ng/ml, PeproTech) or Gal-8 (0.2 μM) in serum-free EBM-2 medium for 10 and 30 min. At the end of the incubation period, cells were lifted with StemPro® Accutase® cell dissociation reagent (Invitrogen), washed with PBS and fixed with 4% paraformaldehyde/PBS on ice for 10 min, and were then stained using rat anti-human PDPN (1:500, BioLegend) and mouse anti-human VEGFR-3 (clone 9D9F9) (1:100, BioLegend) primary antibodies in cell staining buffer (BioLegend, 45 min on ice) and Alexa Fluor® 488 donkey anti-rat and Alexa Fluor® 647 anti-mouse secondary antibodies (1:1000, Invitrogen, 30 min on ice). For negative control, the primary antibodies were omitted. The stained cells were fixed with 2% paraformaldehyde/PBS, analyzed with BD FACSCalibur, and the mean fluorescence intensity of VEGFR-3 and PDPN were quantified with the FlowJo software (version 9.5.2).

PDPN = assay: Cell surface expression of PDPN by flow cytometry; format: cell-based, human; settings: 30 min post-treatment; VEGF-C 50 ng/ml
Description: as §1

Avastin: an antibody targeted against VEGF-A
effect on VEGF-A-induced LEC sprouting (in words) [1]: almost completely abolished | effect on Gal-8-induced LEC sprouting (in words) [2]: had no effect

OC[C@H]1O[C@@H](S[C@@H]2O[C@H](CO)[C@H](O)[C@H](O)[C@H]2O)[C@H](O)[C@@H](O)[C@H]1O [TDG, thiodigalactoside, reference compound]
effect on suture-induced corneal lymphangiogenesis (mouse corneas [3]): significantly suppressed | effect on VEGF-C-induced LEC sprouting (in words) ([4]; VEGF-C 50 ng/ml, 24 h): inhibited | effect on the synergistic effect of Gal-8 on VEGF-C-induced sprouting ([4]; VEGF-C plus Gal-8): almost completely inhibited | effect on Gal-8-induced LEC sprouting (in words) [2]: almost completely inhibited

B1: VEGF-C: lymphangiogenic growth factor used as positive control (protein)
chain: AHYNTEILKSIDNEWRKTQCMPREVCIDVGKEFGVATNTFFKPPCVSVYRCGGCCNSEGLQCMNTSTSYLSKTLFEITVPLSQGPKPVTISFANHTSCRCMSKLDVYRQVHSIIRR
extent of vessel formation in galectin-8 KO mice compared to WT (mouse corneas [5]; 160 ng pellet, one week): significantly reduced | mean lymphatic vessel areas (mouse corneas [5]; PDPN KO mice, 160 ng pellet): 0.67 mm^2 | mean lymphatic vessel areas (mouse corneas [5]; WT mice, 160 ng pellet): 1.35 mm^2 | lymphangiogenesis induced by pellet in cornea (in words) (mouse corneas [5]; one week after implantation, Gal-8 40-320 ng/pellet, VEGF-C 160 ng, WT or Prox1-EGFP mice): markedly induced both hemangiogenesis and lymphangiogenesis; also recorded: induce robust growth of lymphatic vessels | decrease of cell surface expression of VEGFR-3 (VEGFR-3): about 40% | decrease of cell surface expression of PDPN (PDPN): about 5%
